Reference: paper PMC7717600, “Novel [(N-alkyl-3-indolylmethylene)hydrazono]oxindoles arrest cell cycle and induce cell apoptosis by inhibiting CDK2 and Bcl-2: synthesis, biological evaluation and in silico studies” (Journal of Enzyme Inhibition and Medicinal Chemistry, 2020)

Assays:
[1] = test system: A-549; assay: SRB anti-proliferative assay; type: cell-based; settings: Homo sapiens, A549; A-549, SRB, mean ± SE of 3
Protocol: Staurosporine, a clinically used antitumor drug, was co-assayed as a reference agent for the experiment.
(§1) Examination of the cytotoxic activity for the target conjugates was carried out in accordance with the SRB colorimetric assay protocol, as described previously.
(§2) In vitro anti-proliferative activity assay
(§3) Cells at a concentration of 0.50 x
(§4) Sulfo-Rhodamine-B stain (SRB) assay.
(§5) cell to the wall of the plate.
(§6) wells were prepared for each individual dose).
(§7) Unbound dye was removed by four

[2] = test system: HCT-116; assay: SRB anti-proliferative assay; type: cell-based; settings: Homo sapiens; HCT-116, SRB, mean ± SE of 3
Protocol: (§8) All the newly prepared target conjugates (7, 8a–c, 9 and 10a–e) were investigated for the prospective growth inhibitory actions against three different cancer cell lines viz.; A-549, MDA-MB-231, and HCT-116, using the sulforhodamine B colorimetric (SRB) assay. Staurosporine, a clinically used antitumor drug, was co-assayed as a reference agent for the experiment.
as §1, §2, §3, §4, §5, §6, §7

[3] = test system: MDA-MB-231; assay: SRB anti-proliferative assay; type: cell-based; settings: Homo sapiens; MDA-MB-231, SRB, mean ± SE of 3
Protocol: as §8, §1, §2, §3, §4, §5, §6, §7

[4] = test system: CDK1; parameters: method as in PMID 11439342; settings: CDK1 ref 4; cited from earlier work
[5] = molecular target: CDK2 (Homo sapiens, UniProt P24941); settings: CDK2 ref 4; cited from earlier work
[6] = test system: CDK5; parameters: method as in PMID 11439342; settings: CDK5 ref 4; cited from earlier work

IC50 [1] [µM]	IC50 [2] [µM]	IC50 [3] [µM]	Structure (SMILES)	IC50 [4] [µM]	IC50 [5] [µM]	IC50 [6] [µM]
50 ± 3.37	19.7 ± 1.28	27.6 ± 1.76	CCn1cc(C=NN=C2C(=O)Nc3ccc(Cl)cc32)c2ccccc21 [Compound 7]			
59.9 ± 3.58	36.3 ± 2.35	54 ± 4.17	C=CCn1cc(C=NN=C2C(=O)Nc3ccc(F)cc32)c2ccccc21 [Compound 10b]			
40.2 ± 1.88	37.4 ± 2.06	51.8 ± 3.77	C=CCn1cc(/C=N/N=C2\C(=O)Nc3ccc(OC(F)(F)F)cc32)c2ccccc21 [Compound 10e]			
2.3 ± 0.17	3.7 ± 0.24	4.5 ± 0.29	COc1cccc2c1C(=O)c1c(O)c3c(c(O)c1C2=O)C[C@@](O)(C(=O)CO)C[C@@H]3O[C@H]1C[C@H](N)[C@H](O)[C@H](C)O1 [Dox., doxorubicin, reference compound]			
			O=C1Nc2ccccc2/C1=C1/Nc2ccccc2C1=NO [Indirubin-3′-oxime]	0.18	0.5	0.25
